{"source": "patent US9950074B2", "about": "“Composition and delivery vehicle for active agents and methods therefor” (Georg-August-Universität Göttingen Stiftung Öffenlichen …, priority 2012, dated 2018)", "key": {"[1]": {"tested_on": "Z310 cells stably transfected with FRα", "test": "apical release (shedding) of [3H]5MTHF from filter-grown Z310 cells", "assay_type": "cell-based", "details": "FRα-transfected Z310 cells loaded 1 h with [3H]5MTHF; 7 μM monensin or 0.5 mg/ml rat transferrin", "experimental": "After three washing steps, cells were incubated with fresh RPMI medium containing either 7 μM monensin (Mon) or 0.5 mg/ml rat transferrin (Trans) or contained no supplementation. Samples from the apical and basolateral compartment were removed at the indicated time points. Subsequently, cells were lysed and radioactivity was measured in medium samples and cell lysates. Data are means±s.e.m. of three independent experiments.\nFor 5MTHF uptake and transport measurements in Z310 cells, 4.2*104 cells were seeded in laminin coated transwell culture plates (0.3 cm2 growth area, 0.4 μm pore size) in folate-free RPMI medium. To test the barrier function, dye permeability assays with lucifer yellow were performed. Cells were used for experiments when the permeability was below 1% per hour. […] Radioactivity in medium samples and cell lysates was measured in a liquid scintillation spectrometer.\nFRα-transfected or vector-transfected Z310 cells were grown in a two chamber transwell system and [^3H]5MTHF was either given into the basolateral or apical compartment. After a 1 h incubation with [^3H]5MTHF the medium was replaced by fresh medium and the time-dependent emergence of [^3H]5MTHF in both compartments was detected."}, "[2]": {"tested_on": "primary porcine choroid plexus epithelial cells (PCPEC)", "test": "apical transport of 5MTHF in primary PCPECs", "assay_type": "cell-based", "details": "PCPEC loaded with 25 nM [3H]5MTHF for 24 hours; 7 μM monensin", "experimental": "Filter-grown PCPECs were loaded with 25 nM [^3H]5MTHF for 24 hours. Cells were then incubated with 7 μM monensin or left untreated. Radioactivity from medium samples was measured at the indicated time points. […] Data are means±s.e.m. of two independent experiments, each done in triplicate.\nPorcine choroid plexus epithelial cells (PCPECs) were prepared basically as described previously (Hakvoort et al., 1998: J Neurochem 71, 1141-1150). Isolated PCPECs were seeded in laminin-coated transwell culture plates (0.4 μm pore size, Costar, Cambridge, Mass.) with a diameter of 12 mm using a seeding density of 20 mg wet tissue/cm2. The cell culture medium (DMEM-Ham's F-12, Biochrom, Berlin, Germany) was supplemented with 10% fetal calf serum, 4 mM glutamine, 5 μg/ml insulin, 100 U/mL penicillin and 100 μg/mL streptomycin. Cytosine arabinoside (20 μM) was added to suppress the growth of contaminating cells. After reaching confluence at days in vitro (DIV) 8, growth medium was replaced by serum-free culture medium (SFM) to support cell differentiation and improve barrier function. At DIV 10, the medium was replaced by folate-free RPMI medium (Invitrogen) without serum.\nFilter-grown PCPEC were loaded with 25 nM [^3H]5MTHF for 24 hours. Subsequently, medium was changed and cells were treated with 7 μM monensin or left untreated."}, "[3]": {"tested_on": "Z310 cells stably expressing FRα", "test": "[3H]5MTHF uptake with transporter inhibitors", "assay_type": "cell-based, rat", "details": "12.5 nM [3H]5MTHF, 1 hour at 37° C.", "method": "Z310 cells stably expressing FRα were incubated with 12.5 nM [^3H]5MTHF alone or together with TC, MTX, PAH, probenecid and digoxin for 1 hour at 37° C. Subsequently, cells were lysed and intracellular radioactivity was measured.\nWe performed additional experiments to evaluate FRα-independent transport processes in Z310 cells at physiological MTHF concentration (12.5 nM). A couple of organic anion transporters are known to be expressed in Z310 cells (Halwachs et al., 2011). […] At this concentration MTX is known to block FR-mediated MTHF binding as well."}, "[4]": {"target": "reduced folate carrier (RFC, SLC19A1) (Homo sapiens, UniProt P41440)", "sequence (P41440 whole entry)": "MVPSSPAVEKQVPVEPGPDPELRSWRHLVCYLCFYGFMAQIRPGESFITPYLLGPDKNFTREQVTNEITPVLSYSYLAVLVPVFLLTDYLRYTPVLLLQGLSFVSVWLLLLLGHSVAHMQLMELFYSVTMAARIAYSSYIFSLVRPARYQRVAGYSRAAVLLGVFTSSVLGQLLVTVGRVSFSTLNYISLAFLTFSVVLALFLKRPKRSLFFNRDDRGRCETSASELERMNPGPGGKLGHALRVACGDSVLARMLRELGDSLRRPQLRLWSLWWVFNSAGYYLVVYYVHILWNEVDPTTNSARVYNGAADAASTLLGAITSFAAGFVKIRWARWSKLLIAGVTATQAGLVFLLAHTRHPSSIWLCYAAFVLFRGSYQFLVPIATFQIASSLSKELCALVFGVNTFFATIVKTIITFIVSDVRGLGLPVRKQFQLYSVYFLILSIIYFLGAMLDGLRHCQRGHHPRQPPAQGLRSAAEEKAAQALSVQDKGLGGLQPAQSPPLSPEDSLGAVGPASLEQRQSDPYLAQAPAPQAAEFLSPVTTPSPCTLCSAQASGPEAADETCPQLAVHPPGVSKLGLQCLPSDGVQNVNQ", "details": "read-out: influx Km of the RFC; cited from earlier work"}, "[5]": {"tested_on": "primary rat choroids plexus epithelial cells", "details": "read-out: Km of FRα-dependent uptake; low extracellular folate concentrations; cited from earlier work"}, "[6]": {"tested_on": "primary mixed cortical cultures", "test": "internalization assay in primary mixed cortical cultures", "assay_type": "cell-based, neonatal mice", "details": "2 hours at 37° C.", "method": "Disassociated neonatal cortices from postnatal day 0-2 mice were cultured in DMEM supplemented with 10% fetal calf serum, 1% GlutaMAX (Invitrogen), 100 U/mL penicillin and 100 μg/mL streptomycin on laminin- and poly-L-lysin-coated coverslips at 37° C. in 5% CO2. Medium was changed every 3-4 days. At DIV 7-14, mixed cortical cultures consisting of oligodendrocytes, cortical neurons and microglia on an astrocyte monolayer were obtained.\nMixed cortical cultures were obtained form neonatal mice and immediately plated on coverslips and incubated in the respective growth medium. Before the internalization assay, exosomes were purified from Z310 cells, stably transfected with FRα or vector and labelled with PKH26 and FA-FITC as described above. The uptake was performed by incubating the cell cultures with exosome dilutions for 2 hours at 37° C. and 5% CO2. Cells were then fixed, permeabilized and stained with the respective antibodies for immunofluorescence analysis.\nWe have unexpectedly disclosed FRα as exosomal cargo in the CSF. To further understand the biological function of this transport mechanism we injected exosomes derived from FRα-transfected or vector-transfected Z310 cells into the lateral ventricle of C57BL/6 mice. […] After incubating the cells for 2 hours at 37° C., cells were fixed and analyzed by immunofluorescence microscopy."}}}
{"molecule": "CC[C@@]1([C@@H]2O[C@@H]([C@H]3O[C@@](O)(CO)[C@H](C)C[C@@H]3C)C[C@@H]2C)CC[C@H]([C@]2(C)CC[C@]3(C[C@H](O)[C@@H](C)[C@@H]([C@@H](C)[C@@H](OC)[C@H](C)C(=O)O)O3)O2)O1", "note": "[monensin]", "values": [{"measurement": "increase of apical shedding of [3H]5MTHF", "setting": "[1]", "result": 70, "unit": "%"}, {"measurement": "enhancement of apical accumulation of [3H]5MTHF", "setting": "[2]", "result": 33, "unit": "%"}]}
{"molecule": "CN(Cc1cnc2nc(N)nc(N)c2n1)c1ccc(C(=O)N[C@@H](CCC(=O)O)C(=O)O)cc1", "note": "[MTX, methotrexate]", "values": [{"measurement": "effect on uptake of [3H]5MTHF", "setting": "[3]; inhibitor at 10 μM", "result": "significantly reduced 5MTHF uptake"}]}
{"molecule": "Nc1ccc(C(=O)NCC(=O)O)cc1", "note": "[p-aminohippuric acid]", "values": [{"measurement": "effect on uptake of [3H]5MTHF", "setting": "[3]", "result": "none of the inhibitors reduced the uptake"}]}
{"molecule": "CCCN(CCC)S(=O)(=O)c1ccc(C(=O)O)cc1", "note": "[probenecid]", "values": [{"measurement": "effect on uptake of [3H]5MTHF", "setting": "[3]", "result": "none of the inhibitors reduced the uptake"}]}
{"molecule": "CN1c2c(nc(N)[nH]c2=O)NCC1CNc1ccc(C(=O)N[C@@H](CCC(=O)O)C(=O)O)cc1", "note": "(some centres unmarked) [5MTHF, 5-methyltetrahydrofolate]", "values": [{"measurement": "Km", "setting": "[4]", "result": "2 to 7", "unit": "µM"}, {"measurement": "Km", "setting": "[5]", "result": "~0.0095", "unit": "µM"}]}
{"molecule": "Folic acid conjugated to fluorescein isothiocyanate [FA-FITC]", "values": [{"measurement": "delivery of FA-FITC to cells", "setting": "[6]; combined with FRα-positive exosomes", "result": "delivered to astrocytes"}, {"measurement": "internalization of FA-FITC by cells", "setting": "[6]; free FA-FITC without exosomes", "result": "none of the cell types internalized free FA-FITC"}]}
{"molecule": "C[C@H]1O[C@@H](O[C@H]2[C@@H](O)C[C@H](O[C@H]3[C@@H](O)C[C@H](O[C@H]4CC[C@@]5(C)[C@H](CC[C@@H]6[C@@H]5C[C@@H](O)[C@]5(C)[C@@H](C7=CC(=O)OC7)CC[C@]65O)C4)O[C@@H]3C)O[C@@H]2C)C[C@H](O)[C@@H]1O", "note": "[digoxin]", "values": [{"measurement": "effect on uptake of [3H]5MTHF", "setting": "[3]", "result": "none of the inhibitors reduced the uptake"}]}
{"molecule": "transferrin: rat transferrin (Rockland), known to induce exosome release from cells (protein, UniProt P12346 20-698, looked up) Serotransferrin: VPDKTVKWCAVSEHENTKCISFRDHMKTVLPADGPRLACVKKTSYQDCIKAISGGEADAITLDGGWVYDAGLTPNNLKPVAAEFYGSLEHPQTHYLAVAVVKKGTDFQLNQLQGKKSCHTGLGRSAGWIIPIGLLFCNLPEPRKPLEKAVASFFSGSCVPCADPVAFPQLCQLCPGCGCSPTQPFFGYVGAFKCLRDGGGDVAFVKHTTIFEVLPQKADRDQYELLCLDNTRKPVDQYEDCYLARIPSHAVVARNGDGKEDLIWEILKVAQEHFGKGKSKDFQLFGSPLGKDLLFKDSAFGLLRVPPRMDYRLYLGHSYVTAIRNQREGVCPEGSIDSAPVKWCALSHQERAKCDEWSVSSNGQIECESAESTEDCIDKIVNGEADAMSLDGGHAYIAGQCGLVPVMAENYDISSCTNPQSDVFPKGYYAVAVVKASDSSINWNNLKGKKSCHTGVDRTAGWNIPMGLLFSRINHCKFDEFFSQGCAPGYKKNSTLCDLCIGPAKCAPNNREGYNGYTGAFQCLVEKGDVAFVKHQTVLENTNGKNTAAWAKDLKQEDFQLLCPDGTKKPVTEFATCHLAQAPNHVVVSRKEKAARVSTVLTAQKDLFWKGDKDCTGNFCLFRSSTKDLLFRDDTKCLTKLPEGTTYEEYLGAEYLQAVGNIRKCSTSRLLEACTFHKS", "values": [{"measurement": "increase of apical shedding of [3H]5MTHF", "setting": "[1]", "result": 36, "unit": "%"}]}
